The test system of data set [1] is human conjunctival epithelial cells (HCE). As to the kind of experiment: Cell growth and vitality of HCE cells (trypan blue exclusion test and MTT assay). Type of data set: cell-based. The source says: In vitro tests on human conjunctival epithelial cells (HCE) for the experimental verification of the cytoprotective and antioxidant activity of beta caryophyllene (BCP) on the oxidative damage induced by anti-glaucoma medicines (AD). Characterization of the cytoprotective effects of beta-caryophyllene (BCP) on the human conjunctival epithelial cells exposed to oxidative and mitochondrial stress. This stress mimics the irritant and inflammatory action of hypotonizing ophthalmic medicines on the external structures of the human eye.
The HCE cells were exposed for 24 and 48 hours with increasing concentrations of BRIM (from 0.25 up to 4 mg/mL), DZL (from 0.086 up to 0.43%) and TFP (from 0.9 up to 30 µg/mL), alone and in combination with various concentrations of BCP (from 1.25 up to 40 µM), and the cell growth and vitality were evaluated respectively using the trypan blue exclusion test and the MTT assay. […] The IC50 ([…]) values for BRIM and DZL on their own are given respectively in the accompanying Figures 1 and 2. The in vitro interactions between BCP and BRIM or DZL, as illustrated in Figures 3A and B, were determined by the ÿE model of non-parametric response surface analysis. […] In particular, the most advantageous combinations were 10 µM BCP with 2 mg/ml BRIM and 2.5 µM BCP with 0.25% DZL. Of the combinations selected, only the combination 10 µM BCP and 2 mg/mL BRIM, which reflects the commercial formulation of the eye drops for treatment, was studied further. All the statistical comparisons were performed with respect to vCTR (vehicle control).

In data set [2] the test system is HCE cells. As to the kind of experiment: Apoptosis, cytofluorimetric analysis. It is filed as cell-based, human. Particulars: BRIM/BCP with respect to BRIM. On the procedure:
Figure 5 is a bar graph showing the percentage values of apoptotic cells (early and late) and necrotic cells in experimental groups exposed for 48 hours to BRIM and BCP.

Data set [3] has as its system HCE cells. Particulars: 48 hours of incubation. The procedure:
The distribution of cell cycle phases is shown using PI dyeing and analyzed using flow cytometry. The bar charts show the percentage of cells in each phase and represent the average ± SE of the results of three independent experiments; one-way ANOVA followed by Bonferroni's t-test; *p<0.05 with respect to vCTR.
The cells were treated for 24 hours and 48 hours, and cytofluorimetric analyses of the cell cycle phase were performed for the distribution (Figure 4) and the apoptosis (Figure 5).

For data set [4], the system named is HCE cells. Particulars: 3 - 24 hours, any analyzed moment, JC-1 dye.
Protocol: After the treatments, the ÿÿm was analyzed using JC-1 dye.
Measurements of mitochondrial activity, performed by means of experiments over time (3 - 24 hours), were evaluated by means of coloring with JC-1 dye.
Data set [5] has as its system HCE cells. Particulars: 24 hours, vs. vCTR.
Protocol: After 24 hours of treatment, intracellular production of ROS was analyzed using DCHF-DA with respect to vCTR. The values shown represent the average ± SE of the results of three independent experiments; one-way ANOVA followed by the Holm-Šidák method; *p<0.05 with respect to vCTR; p<0.05 BRIM/BCP with respect to BRIM dyeing with fluorescent dye. The values express the intensity of the fluorescence (Arbitrary Units, AU) and represent the average ± SE of the results of three independent experiments; one-way ANOVA in the rows; *p<0.05 with respect to vCTR.

Molecules are shown by their SMILES. Structures can show the parent of a compound that is named as a salt.

`C=C1CC/C=C(\C)CC[C@@H]2[C@@H]1CC2(C)C` [BCP, (1R,4E,9S)-4,11,11-Trimethyl-8-methylidenebicyclo[7.2.0]undec-4-ene]: in data set [1] (HCE cells, 48 hours of incubation, BCP from 1.25 up to 40 µM), the “protective effects of BCP in the cells treated with BRIM and DZL” value is recorded as “Significant protective effects”. For the same compound, the “most advantageous combination, BCP concentration with BRIM” value in data set [1] (with 2 mg/ml BRIM, non-parametric response surface analysis) amounted to 10 µM. For the same compound, the “most advantageous combination, BCP concentration with DZL” value in data set [1] (with 0.25% DZL, non-parametric response surface analysis) was 2.5 µM. Further, the “early apoptosis reduced (apoptosis induced by BRIM)” value in the data set on HCE cells [2] (24 and 48 hours) is “approximately 35%”. Also, in the data set on HCE cells [2] (48 hours), the “late apoptosis decrease (apoptosis induced by BRIM)” value is reported as “approximately 15%”.

Consider `Brc1c(NC2=NCCN2)ccc2nccnc12` [BRIM, Brimonidine tartrate], for which, in the data set on HCE cells [3], the S phase entry was “significant decreases”. Also, the “percentage of cells in the G2/M phase” value with HCE cells [3] (vehicle control 12%, 2 mg/mL BRIM, 10 µM BCP) turned out to be 33.73%. Moreover, the “mitochondrial membrane potential (ÿÿm)” value in the data set with HCE cells [4] is on record as “marked mitochondrial depolarization”. Further, the “increase in ROS production” value with HCE cells [5] is on record as “approximately 30%”.

As for `CC(C)OC(=O)CCC/C=C\C[C@@H]1[C@@H](/C=C/C(F)(F)COc2ccccc2)[C@H](O)C[C@@H]1O` [TFP, tafluprost], the cytotoxic effects result in data set [1] (HCE cells, 24 and 48 hours, up to concentrations of 30 µg/mL) is listed as “no cytotoxic effects”.

The values are drawn from patent publication EP4652992A1, “OPHTHALMIC COMPOSITION FOR PREVENTING AND TREATING CONJUNCTIVA EPITHELIUM DAMAGE AND ASSOCIATED DISCOMFORT CAUSED BY HYPOTONIZING FORMULATIONS” (FB Vision S.p.A., priority 2024, dated 2025).
